Assay results from the NIST ThermoML archive (doi:10.1016/j.jct.2015.02.002).
Numbers after ± are expanded uncertainties.

Conditions: Crystal; visual observation

O=C(O)CC(O)C(=O)O (stereo unspecified) [hydroxybutanedioic acid]
Normal melting temperature: 130.00 ± 0.5 °C
